Source: US5077059A, “Process for preparing melanogenic inhibitor, and pigmentation-lightening agent containing the same” (Yuaka; Mishimazo, priority 1987, dated 1991)

Columns and labels:
Type in all cases: cell-based
[1] = test system: B-16 cell derived from mouse melanoma; test: Melanogenic inhibitory activity in a prescribed pigment cell (B-16); conditions: Experiment 2, B-16 cell; intact melanogenic inhibitor at 1 or 3 units
Protocol: The melanogenic inhibitory activity in a prescribed pigment cell is detected by the method described in Cancer Research, Vol. 42, pp. 1994-2002 (1982).
B-16 cell derived from mouse melanoma is suspended in 10 ml Eagle's minimal essential medium (Grand Island Biological Co., Grand Island, N.Y.), supplemented with 10% fetal calf serum, to give 4×10^4 cells. The suspension is placed into a 25 cm^2 Roux's flask, and cultured at 37° C. with 5% CO2. The cultivation is continued for 5 days while replacing the culture medium with a fresh one supplemented with a melanogenic inhibitor specimen at the first- and third-days. After completion of the culture, the resultant cells are washed with a phosphate buffer (pH 7.2) containing 0.8 w/v % saline to detach them from the inside wall of the Roux's flask by the addition of a solution containing trypsin and EDTA (ethylenediaminetetraacetic acid), collected on a filter paper, and dried. The resultant cells are subjected to densitometry to measure the reflection light at a wave length of 500 nm, followed by determination of the reflection absorbance (degree of darkness).
One unit of melanogenic inhibitory activity is defined as the amount of the melanogenic inhibitor which halves the reflection absorbance of B-16 cells without treatment of melanogenic inhibitor.
(§1) According to the method for detecting melanogenic inhibitory activity in a prescribed pigment cell, specimens containing 1 or 3 units of an intact melanogenic inhibitor, obtained by the method in Experiment 1, were used to compare melanogenic inhibitory activity in established melanoma cell lines, i.e., B-16 cell (mouse melanoma origin), RPMI 1846 cell (hamster melanoma origin), and Malme-3M cell (human melanoma origin).

[2] = test system: RPMI 1846 cell (hamster melanoma origin); test: Comparison of melanogenic inhibitory activity, RPMI 1846 cell; conditions: Experiment 2, RPMI 1846 cell; intact melanogenic inhibitor at 1 or 3 units
From the text: as §1
(§2) As control, either a system without melanogenic inhibitor or another system with melanogenic inhibitor which had been treated at […] for 2 hours was tested similarly as above.

[3] = test system: Malme-3M cell (human melanoma origin); test: Comparison of melanogenic inhibitory activity, Malme-3M cell; conditions: Experiment 2, Malme-3M cell; intact melanogenic inhibitor at 1 or 3 units
From the text: as §1, §2

Measured: melanogenic inhibitory activity, comparison

N[C@@H](CCC(=O)N[C@@H](CS)C(=O)NCC(=O)O)C(=O)O [glutathione]
no melanogenic inhibition: [1] | [2] | [3]

O=C1O[C@H]([C@@H](O)CO)C(O)=C1O [vitamin C]
no melanogenic inhibition: [1] | [2] | [3]

N[C@@H](CS)C(=O)O [cysteine]
no melanogenic inhibition: [1] | [2] | [3]
